In US6461997B1, “Triazole sulfones having herbicidal activity” (Monsanto Technology LLC, priority 1999, dated 2002):

Key:
[1] = test system: CHEAL (common lambsquarters); experiment: Pre-plant incorporated (PPI) herbicidal activity, warm season; assay type: in vivo, Chenopodium album; conditions: PPI application
Method: (§1) In another set of tests, the pre-plant incorporated (PPI) activity of compounds of this invention was evaluated on the same species as for the pre-emergence tests described above. In the PPI tests the following procedure, designed to simulate PPI application, was used.
(§2) A pre-prepared topsoil mixture (described above) was placed in a pot and compacted to a depth of 1.0 to 1.25 cm from the top of the pot. Seeds of each of several monocotyledonous and dicotyledonous annual plant species were placed on top of the soil. A sufficient quantity of soil to cover the seeds and level fill the pot was weighed into an open container. A known amount of the test compound was dissolved or suspended in an organic solvent and applied by spraying to this cover soil. The cover soil was thoroughly mixed to distribute the test compound throughout the cover soil, and was then applied as a cover layer over the seeds. Untreated soil was used as a cover layer for control pots. After treatment the plants were placed in a greenhouse where they received 0.64 cm of overhead irrigation. All subsequent watering consisted of a light overhead mist and/or subirrigation as needed for germination and growth. Tables 9 and 10 below relate to warm season plant species which were placed after pre-emergence treatment in a greenhouse with a 30/21° C. day/night temperature regime. Tables 11 and 12 below relates to cool season plant species placed after pre-emergence treatment in a greenhouse or growth chamber with an 18/13° C. day/night temperature regime. Only the compounds of Examples 1, 6, 8, 11, 13 and 15-20 were included in PPI tests.
(§3) Approximately 14 days after planting and treating, the plants were observed and herbicidal efficacy recorded as percent inhibition by comparison with untreated plants.

AMARE (redroot pigweed) [2] = experiment: Pre-emergence herbicidal activity, warm season; assay type: in vivo, Amaranthus retroflexus; conditions: GR80 = lowest tested rate (300, 100, 30, 10 g/ha) with 80% or greater inhibition; approx. 14 days after treating; 30/21° C.
Summary of the method: (§4)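 GR80 values derive from percent inhibition relative to untreated plants, read roughly 14 days after sowing and pre-emergence soil-surface treatment (compound in 50:50 acetone/water; rates typically 10, 30, 100, 300 g/ha). Warm-season weeds grew at 30/21° C day/night, cool-season ones at 18/13° C; an asterisk marks activity without reaching 80% at the highest rate.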

ECHCG (barnyardgrass) = experiment: Pre-plant incorporated (PPI) herbicidal activity, warm season; assay type: in vivo, Echinochloa crus-galli; conditions: PPI application
Method: as §1, §2, §3

wheat (TRZAW) = experiment: Selectivity test, PPI, cool season crop; assay type: in vivo, Triticum aestivum; conditions: PPI application
Method: as §2, §3
Additional pre-emergence and PPI tests were conducted by the procedures described above, on warm and cool season weed species in the presence of crop species, to assess herbicidal selectivity. Crop species included in warm season tests were corn (Zea mays, ZEAMX), rice (Oryza sativa, ORYSA) and soybean (Glycine max, GLYMX). Crop species included in cool season tests were wheat (Triticum aestivum, TRZAW), barley (Hordeunm vulgare, HORVX) and oilseed rape (Brassica napus, BRSNS).
Tables 15 and 16 relate to pre-emergence and PPI tests respectively on warm season species. Table 17 relates to pre-emergence tests on cool season species.

XANST (cocklebur) = experiment: Pre-plant incorporated (PPI) herbicidal activity, warm season; assay type: in vivo, Xanthium strumarium; conditions: PPI application
Method: as §1, §2, §3

AVEFA (wild oat) = experiment: Pre-plant incorporated (PPI) herbicidal activity, cool season; assay type: in vivo, Avena fatua; conditions: weed, PPI application
Method: as §1, §2, §3

AMARE (redroot pigweed) [3] = experiment: Pre-plant incorporated (PPI) herbicidal activity, warm season; assay type: in vivo, Amaranthus retroflexus; conditions: PPI application
Method: as §1, §2, §3

SETVI (green foxtail) = experiment: Pre-emergence herbicidal activity, cool season; assay type: in vivo, Setaria viridis; conditions: GR80 = lowest tested rate (300, 100, 30, 10 g/ha) with 80% or greater inhibition; approx. 14 days after treating; 18/13° C.
Summary of the method: as §4

[4] = test system: AGRRE (quackgrass (seedling)); experiment: Pre-plant incorporated (PPI) herbicidal activity, cool season; assay type: in vivo, Elymus repens; conditions: weed, PPI application
Method: as §1, §2, §3

[5] = test system: LAMPU (purple deadnettle); experiment: as above; assay type: in vivo, Lamium purpureum; conditions: weed, PPI application
Method: as §1, §2, §3

| Structure (SMILES) | Percent inhibition CHEAL ([1]; 30 g/ha) [%] | Percent inhibition CHEAL ([1]; 100 g/ha) [%] | Percent inhibition CHEAL ([1]; 300 g/ha) [%] | Percent inhibition CHEAL ([1]; 900 g/ha) [%] | Pre-emergence activity (GR80) AMARE (AMARE (redroot pigweed) [2]) [g/ha] | Percent inhibition ECHCG (ECHCG (barnyardgrass); 30 g/ha) [%] | Percent inhibition ECHCG (ECHCG (barnyardgrass); 100 g/ha) [%] | Percent inhibition ECHCG (ECHCG (barnyardgrass); 300 g/ha) [%] | Percent inhibition ECHCG (ECHCG (barnyardgrass); 900 g/ha) [%] | Percent inhibition TRZAW (wheat (TRZAW); 30 g/ha) [%] | Percent inhibition TRZAW (wheat (TRZAW); 100 g/ha) [%] | Percent inhibition TRZAW (wheat (TRZAW); 300 g/ha) [%] | Percent inhibition TRZAW (wheat (TRZAW); 900 g/ha) [%] | Percent inhibition XANST (XANST (cocklebur); 30 g/ha) [%] | Percent inhibition XANST (XANST (cocklebur); 100 g/ha) [%] | Percent inhibition XANST (XANST (cocklebur); 300 g/ha) [%] | Percent inhibition XANST (XANST (cocklebur); 900 g/ha) [%] | Percent inhibition AVEFA (AVEFA (wild oat); 30 g/ha) [%] | Percent inhibition AVEFA (AVEFA (wild oat); 100 g/ha) [%] | Percent inhibition AVEFA (AVEFA (wild oat); 300 g/ha) [%] | other results |
| --- | --- | --- | --- | --- | --- | --- | --- | --- | --- | --- | --- | --- | --- | --- | --- | --- | --- | --- | --- | --- | --- |
| CCN(CC)C(=O)n1cnc(S(=O)(=O)C(F)(F)F)n1 [Example 2] | 90 | 95 | 100 | 100 | 30 | 40 | 80 | 100 | 100 | 0 | 0 | 30 | 30 | 0 | 0 | 0 | 0 | 0 | 10 | 20 | Percent inhibition AVEFA (AVEFA (wild oat); 900 g/ha): 50%; Percent inhibition AMARE (AMARE (redroot pigweed) [3]; 30 g/ha): 100%; Percent inhibition AMARE (AMARE (redroot pigweed) [3]; 100 g/ha): 95%; Percent inhibition AMARE (AMARE (redroot pigweed) [3]; 300 g/ha): 100%; Percent inhibition AMARE (AMARE (redroot pigweed) [3]; 900 g/ha): 100%; Pre-emergence activity (GR80) SETVI (SETVI (green foxtail)): 30 g/ha; Percent inhibition AGRRE ([4]; 30 g/ha): 0%; Percent inhibition AGRRE ([4]; 100 g/ha): 0%; Percent inhibition AGRRE ([4]; 300 g/ha): 30%; Percent inhibition AGRRE ([4]; 900 g/ha): 60%; Percent inhibition LAMPU ([5]; 30 g/ha): 30%; Percent inhibition LAMPU ([5]; 100 g/ha): 70%; Percent inhibition LAMPU ([5]; 300 g/ha): 95%; Percent inhibition LAMPU ([5]; 900 g/ha): 100% |
| CCN(CC)C(=O)n1cnc(S(=O)(=O)C(F)(F)Cl)n1 [Example 3] | 80 | 99 | 100 | 100 | 100 | 100 | 99 | 100 | 100 | 0 | 0 | 20 | 40 | 0 | 0 | 0 | 60 | 20 | 40 | 100 | Percent inhibition AVEFA (AVEFA (wild oat); 900 g/ha): 80%; Percent inhibition AMARE (AMARE (redroot pigweed) [3]; 30 g/ha): 90%; Percent inhibition AMARE (AMARE (redroot pigweed) [3]; 100 g/ha): 100%; Percent inhibition AMARE (AMARE (redroot pigweed) [3]; 300 g/ha): 100%; Percent inhibition AMARE (AMARE (redroot pigweed) [3]; 900 g/ha): 100%; Pre-emergence activity (GR80) SETVI (SETVI (green foxtail)): 100 g/ha; Percent inhibition AGRRE ([4]; 30 g/ha): 20%; Percent inhibition AGRRE ([4]; 100 g/ha): 50%; Percent inhibition AGRRE ([4]; 300 g/ha): 80%; Percent inhibition AGRRE ([4]; 900 g/ha): 95%; Percent inhibition LAMPU ([5]; 30 g/ha): 60%; Percent inhibition LAMPU ([5]; 100 g/ha): 95%; Percent inhibition LAMPU ([5]; 300 g/ha): 100%; Percent inhibition LAMPU ([5]; 900 g/ha): 100% |
| CCN(CC)C(=O)n1cnc(S(=O)(=O)C(F)(F)C(F)(F)Br)n1 [Example 4] | 60 | 100 | 100 | 100 | 100 | 20 | 100 | 100 | 100 | 0 | 10 | 30 | 45 | 0 | 0 | 0 | 40 | 10 | 10 | 50 | Percent inhibition AVEFA (AVEFA (wild oat); 900 g/ha): 100%; Percent inhibition AMARE (AMARE (redroot pigweed) [3]; 30 g/ha): 70%; Percent inhibition AMARE (AMARE (redroot pigweed) [3]; 100 g/ha): 100%; Percent inhibition AMARE (AMARE (redroot pigweed) [3]; 300 g/ha): 100%; Percent inhibition AMARE (AMARE (redroot pigweed) [3]; 900 g/ha): 100%; Pre-emergence activity (GR80) SETVI (SETVI (green foxtail)): 30 g/ha; Percent inhibition AGRRE ([4]; 30 g/ha): 50%; Percent inhibition AGRRE ([4]; 100 g/ha): 70%; Percent inhibition AGRRE ([4]; 300 g/ha): 80%; Percent inhibition AGRRE ([4]; 900 g/ha): 90%; Percent inhibition LAMPU ([5]; 30 g/ha): 40%; Percent inhibition LAMPU ([5]; 100 g/ha): 80%; Percent inhibition LAMPU ([5]; 300 g/ha): 80%; Percent inhibition LAMPU ([5]; 900 g/ha): 90% |
